Data on seven compounds can be found in US9365571B2, “Piperidino-pyrimidine derivatives for the treatment of viral infections” (Janssen Sciences Ireland UC, priority 2012, dated 2016).

Common to all, as to assay type: cell-based
For assay [1], the system named is PBMC-IFNa. Briefly: PBMC-IFNa. Conditions: Table IIC; lowest effective concentration; read-out: PBMC-IFNa (LEC).
The test system of assay [2] is human TLR7. Briefly: TLR7 cellular NFκB-luc reporter assay in transiently transfected HEK293 cells. As to conditions: Table IIC, lowest effective concentration, 6 hours incubation. The procedure:
(§1) The ability of compounds to activate human TLR7 and/or TLR8 was assessed in a cellular reporter assay using HEK293 cells transiently transfected with a TLR7 or TLR8 expression vector and NFκB-luc reporter construct. In one instance the TLR expression construct expresses the respective wild type sequence or a mutant sequence comprising a deletion in the second leucine-rich repeat of the TLR.
(§2) Briefly, HEK293 cells were grown in culture medium (DMEM supplemented with 10% FCS and 2 mM Glutamine). For transfection of cells in 10 cm dishes, cells were detached with Trypsin-EDTA, transfected with a mix of CMV-TLR7 or TLR8 plasmid (750 ng), NFκB-luc plasmid (375 ng) and a transfection reagent and incubated overnight at 37° C. in a humidified 5% CO2 atmosphere. Transfected cells were then detached with Trypsin-EDTA, washed in PBS and resuspended in medium to a density of 1.67×10^5 cells/mL. Thirty microliters of cells were then dispensed into each well in 384-well plates, where 10 μL of compound in 4% DMSO was already present. Following 6 hours incubation at 37° C., 5% CO2, the luciferase activity was determined by adding 15 μl of Steady Lite Plus substrate (Perkin Elmer) to each well and readout performed on a ViewLux ultraHTS microplate imager (Perkin Elmer). Dose response curves were generated from measurements performed in quadruplicates. Lowest effective concentrations (LEC) values, defined as the concentration that induces an effect which is at least two fold above the standard deviation of the assay, were determined for each compound.

Assay [3] has as its system human TLR8. In words: TLR8 cellular NFκB-luc reporter assay in transiently transfected HEK293 cells. Conditions: Table IIC, lowest effective concentration, 6 hours incubation. As to the method: as §1, §2
In general terms: In a reporter assay the amount or activity of a reporter protein is the signal.

Consider `CCCC[C@@H](CCO)Nc1nc(N)nc2c1CN(C(=O)c1cccs1)CC2` [Compound 45], for which, in assay [1], the minimal effective concentration is 0.2 µM. Further, the “Human TLR7 (LEC, μM)” value in assay [2] stood at 0.2 µM. In addition, the “Human TLR8 (LEC, μM)” value in assay [3] was 1.7 µM.
In the case of `CCCC[C@@H](CCO)Nc1nc(N)nc2c1CN(C(=O)c1cscn1)CC2` [Compound 46], the minimal effective concentration in assay [1] was determined as 0.2 µM. In addition, the “Human TLR7 (LEC, μM)” value in assay [2] came to 0.6 µM. Also, the “Human TLR8 (LEC, μM)” value in assay [3] is 3.5 µM.
For the compound `CCC[C@@H](CCO)Nc1nc(N)nc2c1CN(C(=O)c1cccs1)CC2` [Compound 47], the minimal effective concentration in assay [1] turned out to be 0.2 µM. The “Human TLR7 (LEC, μM)” value in assay [2] stood at 0.2 µM. Moreover, the “Human TLR8 (LEC, μM)” value in assay [3] stood at 1.1 µM.
As to `CCCC[C@@H](CCO)Nc1nc(N)nc2c1CN(C(=O)c1ccccc1)CC2` [Compound 48], the minimal effective concentration in assay [1] is 0.3 µM. Moreover, in assay [2], the “Human TLR7 (LEC, μM)” value came out at 1.2 µM. For the same compound, the “Human TLR8 (LEC, μM)” value in assay [3] was found to be 3.9 µM.
For `CCC[C@@H](CCO)Nc1nc(N)nc2c1CCN(C(=O)c1cccn1C)C2` [Compound 49] the same measures were 0.3 µM, 2.7 µM and 4.0 µM.
Take `CCCC[C@@H](CCO)Nc1nc(N)nc2c1CCN(C(=O)c1cccn1C)C2` [Compound 50]: the minimal effective concentration in assay [1] stood at 0.3 µM. The “Human TLR7 (LEC, μM)” value in assay [2] is 1.7 µM. In addition, the “Human TLR8 (LEC, μM)” value in assay [3] is 3.9 µM.
For the compound `CCCC[C@@H](CCO)Nc1nc(N)nc2c1CN(C(=O)c1cccn1C)CC2` [Compound 51], the minimal effective concentration in assay [1] amounted to 0.1 µM. Besides, the “Human TLR7 (LEC, μM)” value in assay [2] was 0.5 µM. In addition, in assay [3], the “Human TLR8 (LEC, μM)” value came to 0.4 µM.
